# Values quoted from earlier work as cited in patent publication US20240335532A1, “NANOPARTICULATE FORMULATION” (NewImmune II, LLC, priority 2021, published 2024).
# Where two headings read alike, the source gives them in different places.
# Assays:
# influenza [1] = settings: 50 μg intraperitoneally, with influenza vaccine, mice
# [2] = single subcutaneous dose, rats
# [3] = intravenous 0.5 to 5.0 mg/kg, dogs
# [4] = intravenous 2 mg/kg/day, gestational Days 6-18, pregnant rabbits
# [5] = 2000 and 5000 mg/kg under occlusion, rabbits
# [6] = 30 mg subcutaneous dose, healthy human volunteers
# influenza [7] = settings: topical pre-treatment, young and elderly individuals
# [8] = dermal exposure, mice
# [9] = mice
# [10] = rats
# [11] = monkeys
structure (smiles),measurement,setting,value
"CC(C)Cn1cnc2c(N)nc3ccccc3c21 [imiquimod, 1-(2-methylpropyl)imidazo[4,5-c]quinolin-4-amine]",pH of maximum solubility in aqueous solution,Britton-Robinson buffer,≤ 2
same,aqueous solubility,above pH 6,only sparingly soluble
same,solubility in aqueous solution,physiological pH,very low solubility
same,humoral immune responses against the virus,influenza [1],significantly expedited and augmented
same,protection against early lethal viral challenges,influenza [1],conferred significant protection
same,subcutaneous lethal dose,[2],20 mg/kg
same,cardiovascular and nervous system effects,[3],"produced cardiac stimulation, central nervous system stimulation and some evidence of autonomic nervous system inhibition"
same,embryofetal toxicity or teratogenicity,[4],No treatment related effects
same,dermal toxicity,[5],no deaths and no signs of toxicity other than mild transient erythema at the application site
same,tolerability,[6],well tolerated
same,immunogenicity of influenza vaccination,influenza [7],significantly improves the immunogenicity
same,incidence of tumors or non-neoplastic lesions,[8],no increase
same,single dose toxicity,[9],high degree of safety
same,single dose toxicity,[10],high degree of safety
same,single dose toxicity,[11],high degree of safety
